How the values were obtained:
Format in all cases: nucleic-acid assay
Conditions in all cases: Bos taurus
Calf thymus DNA = experiment: Calf thymus DNA binding affinity compared to ethidium bromide
Nucleic Acid [1] = experiment: DNA binding affinity by a decrease in fluorescence of an ethidium bromide calf thymus DNA solution; (41%)
Nucleic Acid [2] = experiment: DNA binding affinity by a decrease in fluorescence of an ethidium bromide calf thymus DNA solution; (39%)
Nucleic Acid [3] = experiment: DNA binding affinity by a decrease in fluorescence of an ethidium bromide calf thymus DNA solution; (25%)
Nucleic Acid [4] = experiment: DNA binding affinity by a decrease in fluorescence of an ethidium bromide calf thymus DNA solution; (34%)
Nucleic Acid [5] = experiment: DNA binding affinity by a decrease in fluorescence of an ethidium bromide calf thymus DNA solution; (36%)
Nucleic Acid [6] = experiment: DNA binding affinity by a decrease in fluorescence of an ethidium bromide calf thymus DNA solution; (10%)
Nucleic Acid [7] = experiment: DNA binding affinity by a decrease in fluorescence of an ethidium bromide calf thymus DNA solution (0%)
Nucleic Acid [8] = experiment: DNA binding affinity by a decrease in fluorescence of an ethidium bromide calf thymus DNA solution; (12%)
Nucleic Acid [9] = experiment: DNA binding affinity by a decrease in fluorescence of an ethidium bromide calf thymus DNA solution; (33%)

| C50 (Calf thymus DNA) [µM] | Compound | other results |
| --- | --- | --- |
| 100 | CN(C)CCN1C(=O)c2cccc3cccc(c23)C1=O |  |
| 11 | O=C1c2cccc3c([N+](=O)[O-])ccc(c23)C(=O)N1CCN1CCCC1 |  |
| 10 | O=C1c2cccc3cc([N+](=O)[O-])cc(c23)C(=O)N1CCN1CCCC1 |  |
| 14 | CNCCN1C(=O)c2cccc3cc([N+](=O)[O-])cc(c23)C1=O |  |
| 16 | CN(C)CCCN1C(=O)c2cccc3cc([N+](=O)[O-])cc(c23)C1=O |  |
| 50 | NCCN1C(=O)c2cccc3cccc(c23)C1=O |  |

Second part, the molecule before the results:

| Compound | C50 (Calf thymus DNA) [µM] | other results |
| --- | --- | --- |
| CNCCN1C(=O)c2cccc3cccc(c23)C1=O |  | C50 (Nucleic Acid [1]): > 100 µM |
| O=C1c2cccc3cc([N+](=O)[O-])cc(c23)C(=O)N1CCN1CCNCC1 |  | C50 (Nucleic Acid [2]): > 100 µM |
| O=C1c2cccc3cc([N+](=O)[O-])cc(c23)C(=O)N1CCO |  | C50 (Nucleic Acid [3]): > 100 µM |
| O=C1c2cccc3c([N+](=O)[O-])ccc(c23)C(=O)N1CCO |  | C50 (Nucleic Acid [4]): > 100 µM |
| CCN(CC)CCN1C(=O)c2cccc3c([N+](=O)[O-])ccc(c23)C1=O | 28 |  |
| CN(C)CCCN1C(=O)c2cccc3c([N+](=O)[O-])ccc(c23)C1=O |  | C50 (Nucleic Acid [5]): > 100 µM |
| CN(C)CCN1C(=O)c2cccc3cc([N+](=O)[O-])cc(c23)C1=O | 11 |  |
| CCN(CC)CCN1C(=O)c2cccc3cc([N+](=O)[O-])cc(c23)C1=O | 35 |  |
| O=C1c2cccc3cc([N+](=O)[O-])cc(c23)C(=O)N1CCc1ccccn1 |  | C50 (Nucleic Acid [6]): > 100 µM |
| CCN(CC)CCN1C(=O)c2cccc3cccc(c23)C1=O | 100 |  |
| O=C1c2cccc3c([N+](=O)[O-])ccc(c23)C(=O)N1CCc1ccccn1 |  | C50 (Nucleic Acid [7]): > 100 µM |
| NCCN1C(=O)c2cccc3c([N+](=O)[O-])ccc(c23)C1=O | 17 |  |
| O=C1c2cccc3cccc(c23)C(=O)N1CCO |  | C50 (Nucleic Acid [8]): > 100 µM |
| CNCCN1C(=O)c2cccc3c([N+](=O)[O-])ccc(c23)C1=O | 19 |  |
| CN(C)CCN1C(=O)c2cccc3c([N+](=O)[O-])ccc(c23)C1=O |  | C50 (Nucleic Acid [9]): > 100 µM |
